Reference: US20220249441A1, “Homodimeric Tobramycin Adjuvant Repurposes Novobiocin as an Effective Antibacterial Agent Against Gram-Negative Bacteria” (priority 2019, published 2022)
≈ marks a conversion by molar mass, not a printed value.

Key:
[1] = test system: P. aeruginosa; test: Checkerboard assay (antibiotic + adjuvant combination MIC); type: cell-based, Pseudomonas aeruginosa; conditions: compound at 8 μM; for MIC of Aztreonam + compound / MIC of Ceftazidime + compound / MIC of Imipenem + compound / MIC of Piperacillin + compound: P. aeruginosa PAO1
Method: (§1) Antimicrobial Susceptibility Assay. The in vitro antimicrobial activity of all compounds/antibiotics against a panel of bacteria was evaluated by microbroth dilution method in accordance with the Clinical and Laboratory Standards Institute (CLSI) guidelines (using ATCC strains as quality control strains) (54). Overnight grown bacterial cultures were diluted in saline to achieve a 0.5 McFarland turbidity, followed by 1:50 dilution in Mueller-Hinton broth (MHB) for inoculation to a final concentration of approximately 5×10^5 CFU/mL. […] The lowest concentration that prevented the visible growth of bacteria was defined as the MIC for each antimicrobial agent. The broth with or without bacterial cells was used as positive or negative control, respectively.
Checkerboard Assay. Combination studies with different antibiotics were performed in 96-well plates as previously described (19). Briefly, the antibiotic of interest was serially diluted in MHB along the abscissa while the adjuvant (tobramycin homodimer) was serially diluted in MHB along the ordinate. This creates a 10×7 matrices wherein each well consists of a combination of different antibiotic and adjuvant concentrations. Overnight grown bacterial cultures were diluted in saline to achieve a 0.5 McFarland turbidity, followed by 1:50 dilution in Mueller-Hinton broth (MHB) for inoculation to a final concentration of approximately 5×10^5 CFU/mL. […] MIC was recorded as wells with the lowest concentration of drugs with no bacterial growth. The fractional inhibitory concentration (FIC) for each antibiotic was calculated by dividing the MIC of the antibiotic in the presence of adjuvant by the MIC of the antibiotic alone. Similarly, the FIC of adjuvant was calculated by dividing the MIC of the adjuvant in the presence of antibiotic by the MIC of the adjuvant alone. FIC index is the sum of both FICs. FIC indices of ≤0.5 were deemed synergistic; >0.5-4, no interaction; and >4, antagonistic.

[2] = test system: panel of Gram-positive and Gram-negative bacteria; test: Antimicrobial susceptibility assay against a panel of bacteria; type: cell-based; conditions: some isolates
Method: as §1

[3] = test system: P. aeruginosa PAO1 and efflux deficient mutants, MDR/XDR isolates; test: microbe, parasite or virus in culture; type: cell-based, Pseudomonas aeruginosa
Method: Antimicrobial Susceptibility Assay. The in vitro antimicrobial activity of all compounds/antibiotics against a panel of bacteria was evaluated by microbroth dilution method in accordance with the Clinical and Laboratory Standards Institute (CLSI) guidelines (using ATCC strains as quality control strains) (54). […] The broth with or without bacterial cells was used as positive or negative control, respectively.

[4] = PAO200 (second column so headed)

Cl.Cl.Cl.Cl.Cl.NC[C@H]1O[C@H](O[C@H]2[C@H](OCCCCCCCCCCCCN3CCN(c4cc5c(cc4F)c(=O)c(C(=O)O)cn5C4CC4)CC3)[C@@H](O)[C@H](N)C[C@@H]2N)[C@H](N)C[C@@H]1O [Compound 24]
MIC of Aztreonam + compound [1]: 0.5 µg/mL
MIC of Ceftazidime + compound [1]: 0.25 µg/mL
MIC of Imipenem + compound [1]: 1 µg/mL
MIC of Piperacillin + compound [1]: 2 µg/mL
MIC of ATM in the presence of compound ([1]; PA 259-96918): 8 µg/mL
MIC of CAZ in the presence of compound ([1]; PA 259-96918): 128 µg/mL
MIC of IPM in the presence of compound ([1]; PA 259-96918): 16 µg/mL
MIC of ATM in the presence of compound ([1]; PA 260-97103): 0.25 µg/mL
MIC of CAZ in the presence of compound ([1]; PA 260-97103): 0.25 µg/mL
MIC of IPM in the presence of compound ([1]; PA 260-97103): 2 µg/mL
MIC of ATM in the presence of compound ([1]; PA 262-101856): 16 µg/mL
MIC of CAZ in the presence of compound ([1]; PA 262-101856): 4 µg/mL
MIC of IPM in the presence of compound ([1]; PA 262-101856): 8 µg/mL
MIC of ATM in the presence of compound ([1]; PA 264-104354): 16 µg/mL
MIC of CAZ in the presence of compound ([1]; PA 264-104354): 64 µg/mL
MIC of IPM in the presence of compound ([1]; PA 264-104354): 8 µg/mL
MIC of ATM in the presence of compound ([1]; PA 86052): 4 µg/mL
MIC of CAZ in the presence of compound ([1]; PA 86052): 4 µg/mL
MIC of IPM in the presence of compound ([1]; PA 86052): 4 µg/mL
MIC of ATM in the presence of compound ([1]; PA 88949): 8 µg/mL
MIC of CAZ in the presence of compound ([1]; PA 88949): 32 µg/mL
MIC of IPM in the presence of compound ([1]; PA 88949): 64 µg/mL
MIC of ATM in the presence of compound ([1]; PA 91433): 8 µg/mL
MIC of CAZ in the presence of compound ([1]; PA 91433): 0.5 µg/mL
MIC of IPM in the presence of compound ([1]; PA 91433): 8 µg/mL
MIC of ATM in the presence of compound ([1]; PA 100036): 8 µg/mL
MIC of CAZ in the presence of compound ([1]; PA 100036): 4 µg/mL
MIC of IPM in the presence of compound ([1]; PA 100036): 4 µg/mL
MIC of ATM in the presence of compound ([1]; PA 101243): 0.25 µg/mL
MIC of CAZ in the presence of compound ([1]; PA 101243): 4 µg/mL
MIC of IPM in the presence of compound ([1]; PA 101243): 4 µg/mL
MIC of ATM in the presence of compound ([1]; PA 101885): 4 µg/mL
MIC of CAZ in the presence of compound ([1]; PA 101885): 4 µg/mL
MIC of IPM in the presence of compound ([1]; PA 101885): 2 µg/mL
MIC of ATM in the presence of compound ([1]; PA 107092): 32 µg/mL
MIC of CAZ in the presence of compound ([1]; PA 107092): 64 µg/mL
MIC of IPM in the presence of compound ([1]; PA 107092): 16 µg/mL
MIC of ATM in the presence of compound ([1]; PA 108590): 0.13 µg/mL
MIC of CAZ in the presence of compound ([1]; PA 108590): 1 µg/mL
MIC of IPM in the presence of compound ([1]; PA 108590): 0.5 µg/mL
MIC of ATM in the presence of compound ([1]; PA 109084): 32 µg/mL
MIC of CAZ in the presence of compound ([1]; PA 109084): 32 µg/mL
MIC of IPM in the presence of compound ([1]; PA 109084): 8 µg/mL
MIC of ATM in the presence of compound ([1]; PA 114228): 8 µg/mL
MIC of CAZ in the presence of compound ([1]; PA 114228): 4 µg/mL
MIC of IPM in the presence of compound ([1]; PA 114228): 1 µg/mL
MIC of ATM in the presence of compound ([1]; PA O200 (efflux-deficient)): 0.03 µg/mL
MIC of CAZ in the presence of compound ([1]; PA O200 (efflux-deficient)): 0.13 µg/mL
MIC of IPM in the presence of compound ([1]; PA O200 (efflux-deficient)): 1 µg/mL
MIC of ATM in the presence of compound ([1]; PA O750 (efflux-deficient)): 0.13 µg/mL
MIC of CAZ in the presence of compound ([1]; PA O750 (efflux-deficient)): 0.01 µg/mL
MIC of IPM in the presence of compound ([1]; PA O750 (efflux-deficient)): 2 µg/mL
MIC of ATM in the presence of compound ([1]; PAO1): 0.5 µg/mL
MIC of CAZ in the presence of compound ([1]; PAO1): 0.25 µg/mL
MIC of IPM in the presence of compound ([1]; PAO1): 1 µg/mL
intrinsic antimicrobial activity [2]: some modest residual activity
MIC ([3]; PA0750 (efflux-deficient)): 2 µg/mL
MIC ([3]; PAO1 (wild-type)): 32 µg/mL
MIC ([3]; PAO200 (first column so headed)): 4 µg/mL
MIC [3, 4]: 2 µg/mL

N=C(N)NC[C@H]1O[C@H](O[C@H]2[C@H](OCCCCCCCCCCCCN3CCN(c4cc5c(cc4F)c(=O)c(C(=O)O)cn5C4CC4)CC3)[C@@H](O[C@H]3O[C@H](CO)[C@@H](O)[C@H](NC(=N)N)[C@H]3O)[C@H](NC(=N)N)C[C@@H]2NC(=N)N)[C@H](NC(=N)N)C[C@@H]1O [Compound 27, Guanidinylated Tobramycin-Ciprofloxacin Conjugate]
MIC of Aztreonam + compound [1]: 0.5 µg/mL
MIC of Ceftazidime + compound [1]: 0.25 µg/mL
MIC of Imipenem + compound [1]: 1 µg/mL
MIC of Piperacillin + compound [1]: 8 µg/mL
MIC of ATM in the presence of compound ([1]; PA 259-96918): 32 µg/mL
MIC of CAZ in the presence of compound ([1]; PA 259-96918): 512 µg/mL
MIC of IPM in the presence of compound ([1]; PA 259-96918): 64 µg/mL
MIC of ATM in the presence of compound ([1]; PA 260-97103): 8 µg/mL
MIC of CAZ in the presence of compound ([1]; PA 260-97103): 16 µg/mL
MIC of IPM in the presence of compound ([1]; PA 260-97103): 8 µg/mL
MIC of ATM in the presence of compound ([1]; PA 262-101856): 32 µg/mL
MIC of CAZ in the presence of compound ([1]; PA 262-101856): 16 µg/mL
MIC of IPM in the presence of compound ([1]; PA 262-101856): 16 µg/mL
MIC of ATM in the presence of compound ([1]; PA 264-104354): 32 µg/mL
MIC of CAZ in the presence of compound ([1]; PA 264-104354): 128 µg/mL
MIC of IPM in the presence of compound ([1]; PA 264-104354): 16 µg/mL
MIC of ATM in the presence of compound ([1]; PA 86052): 32 µg/mL
MIC of CAZ in the presence of compound ([1]; PA 86052): 32 µg/mL
MIC of IPM in the presence of compound ([1]; PA 86052): 16 µg/mL
MIC of ATM in the presence of compound ([1]; PA 88949): 32 µg/mL
MIC of CAZ in the presence of compound ([1]; PA 88949): 32 µg/mL
MIC of IPM in the presence of compound ([1]; PA 88949): 64 µg/mL
MIC of ATM in the presence of compound ([1]; PA 91433): 16 µg/mL
MIC of CAZ in the presence of compound ([1]; PA 91433): 4 µg/mL
MIC of IPM in the presence of compound ([1]; PA 91433): 8 µg/mL
MIC of ATM in the presence of compound ([1]; PA 100036): 16 µg/mL
MIC of CAZ in the presence of compound ([1]; PA 100036): 6 µg/mL
MIC of IPM in the presence of compound ([1]; PA 100036): 4 µg/mL
MIC of ATM in the presence of compound ([1]; PA 101243): 4 µg/mL
MIC of CAZ in the presence of compound ([1]; PA 101243): 16 µg/mL
MIC of IPM in the presence of compound ([1]; PA 101243): 4 µg/mL
MIC of ATM in the presence of compound ([1]; PA 101885): 4 µg/mL
MIC of CAZ in the presence of compound ([1]; PA 101885): 2 µg/mL
MIC of IPM in the presence of compound ([1]; PA 101885): 2 µg/mL
MIC of ATM in the presence of compound ([1]; PA 107092): 32 µg/mL
MIC of CAZ in the presence of compound ([1]; PA 107092): 32 µg/mL
MIC of IPM in the presence of compound ([1]; PA 107092): 32 µg/mL
MIC of ATM in the presence of compound ([1]; PA 108590): 2 µg/mL
MIC of CAZ in the presence of compound ([1]; PA 108590): 2 µg/mL
MIC of IPM in the presence of compound ([1]; PA 108590): 4 µg/mL
MIC of ATM in the presence of compound ([1]; PA 109084): 32 µg/mL
MIC of CAZ in the presence of compound ([1]; PA 109084): 32 µg/mL
MIC of IPM in the presence of compound ([1]; PA 109084): 16 µg/mL
MIC of ATM in the presence of compound ([1]; PA 114228): 8 µg/mL
MIC of CAZ in the presence of compound ([1]; PA 114228): 2 µg/mL
MIC of IPM in the presence of compound ([1]; PA 114228): 1 µg/mL
MIC of ATM in the presence of compound ([1]; PA O200 (efflux-deficient)): 0.06 µg/mL
MIC of CAZ in the presence of compound ([1]; PA O200 (efflux-deficient)): 0.25 µg/mL
MIC of IPM in the presence of compound ([1]; PA O200 (efflux-deficient)): 2 µg/mL
MIC of ATM in the presence of compound ([1]; PA O750 (efflux-deficient)): 0.06 µg/mL
MIC of CAZ in the presence of compound ([1]; PA O750 (efflux-deficient)): 0.25 µg/mL
MIC of IPM in the presence of compound ([1]; PA O750 (efflux-deficient)): 1 µg/mL
MIC of ATM in the presence of compound ([1]; PAO1): 0.5 µg/mL
MIC of CAZ in the presence of compound ([1]; PAO1): 0.25 µg/mL
MIC of IPM in the presence of compound ([1]; PAO1): 1 µg/mL
intrinsic antimicrobial activity [2]: some modest residual activity
MIC ([3]; PA0750 (efflux-deficient)): 2 µg/mL (≈ 1.7 µM)
MIC ([3]; PAO1 (wild-type)): 32 µg/mL (≈ 27.2 µM)
MIC [3, 4]: 16 µg/mL (≈ 13.6 µM)
